According to US10806694B2, “Nanoparticles for photodynamic therapy, X-ray induced photodynamic therapy, radiotherapy, radiodynamic therapy, chemotherapy, immunotherapy, and any combination thereof” (The University of Chicago, priority 2014, dated 2020):

What was measured:
[1] = Singlet oxygen generation with Singlet Oxygen Sensor Green (SOSG) under LED irradiation; assay type: physicochemical; conditions: for k (fitting parameter for 1O2 generation curve): 0.1 W/cm^2, 650 nm LED for DBC-UiO and H2DBC, 640 nm for the others
Experimental: A light-emitting diode (LED) array with peak emission at 640 nm was used as the light source of singlet oxygen generation. The irradiance of LED is 100 mW/cm^2. Singlet oxygen sensor green (SOSG) reagent (Life Technologies, Carlsbad, Calif., United States of America) was employed for the detection of singlet oxygen. H2DBP and DBP-UiO samples were prepared in 5 μM solutions/suspensions in HBSS buffer (for DBP-UiO samples, the concentration was calculated as ligand equivalents). To 2 mL each of these solutions/suspensions, SOSG stock solution (5 μL at 5 mM) was added (final concentration=12.5 μM) before fluorescence measurement.
For a typical measurement, fluorescence intensity was acquired on a spectrofluorophotometer (RF-5301PC, Shimadzu Corporation, Kyoto, Japan) with excitation at 504 nm and emission at 525 nm (slit width 3 nm/5 nm for ex/em). Fluorescence was measured after irradiation by LED for 0 (as background), 10 s, 20 s, 30 s, 1 min, 1.5 min, 2 min, 2.5 min, 3 min, 3.5 min, 4 min, 4.5 min, 5 min, 6 min and 7 min.
Singlet oxygen generation efficiencies of H2DBP and DBP-UiO were determined using Singlet Oxygen Sensor Green (SOSG, Life Technologies). After exposure to a LED light source (peak emission at 640 nm, energy irradiance of 100 mW/cm^2), the […] reagent SOSG reacted with ^1O2 to generate green fluorescence which was quantified with a fluorimeter. The fluorescence intensity was plotted against irradiation time. […] The ^1O2 generation curve was fitted with the following equation: IF=A(1−e^−kt) (1) Where IF is fluorescence intensity and t represents irradiation time while A and k are fitting parameters (for detailed derivations, see SI). […]
Singlet Oxygen Sensor Green (SOSG) was employed to determine ^1O2 generation efficiencies of H2DBC and DBC-UiO. SOSG reacted with generated ^1O2 to give green fluorescence (λem=525 nm) that was quantified with a fluorometer. For comparison, ^1O2 generation efficiency of H2DBP, DBP-UiO and protoporphyrin IX (PpIX) were also determined. […]

HT29 cells = assay: In vitro PDT cytotoxicity; assay type: cell-based, human; conditions: with irradiation, LED 90 J/cm^2 (0.1 W/cm^2, 15 min), 640 or 650 nm
Experimental: (§1) The tumor cell uptake of NMOFs was evaluated by incubating CT26 cells with DBP-UiO or DBC-UiO at a Hf concentration of 50 μM for 4 h. […] The in vitro PDT efficacy of DBC-UiO against colon cancer cells was investigated and compared with DBP-UiO and their corresponding free ligands. […] DBP-UiO and […]: 640 nm; DBC-UiO and […]: 650 nm). DBC-UiO outperformed DBP-UiO by effectively killing both cancer cell lines at low NMOF and light doses.

[2] = system: subcutaneous flank tumor mouse model of HT29; assay: In vivo PDT anticancer efficacy; set-up: species or system mice; conditions: ligand dose 1 mg/kg intratumoral, 90 J/cm^2, four treatments
Experimental: (§2) In vivo anticancer efficacy experiments on subcutaneous flank tumor mouse models of CT26 and HT29 were performed. The mice were intratumorally injected with (1) PBS control, (2) DBC-UiO, (3) DBP-UiO, (4) H2DBC, or (5) H2DBP at a ligand dose of 1 mg/kg or (6) DBC-UiO at a ligand dose of 3.5 mg/kg. Twelve hours post injection, each mouse in group (1)-(5) was irradiated at the tumor site with light (0.1 W/cm^2) for 15 min (90 J/cm^2) and the mice in group (6) received light irradiation (0.1 W/cm^2) for 30 min (180 J/cm^2). For (1) to (5) groups on the CT26 model, mice are treated again 4 days after first treatment, while for (1) to (5) groups on HT29 model, mice are treated every 4 days for total 4 treatments.

[3] = system: subcutaneous flank tumor mouse model of CT26; assay: In vivo PDT anticancer efficacy; set-up: species or system mice; conditions: ligand dose 1 mg/kg intratumoral, 90 J/cm^2, two treatments
Experimental: as §2

[4] = Fluorescence lifetime by Time-Correlated Single Photon Counting; fluorescence intensity; assay type: physicochemical
Experimental: The fluorescence spectra of H2DBP ligand and DBP-UiO NMOF were taken on a spectrofluorophotometer (RF-5301PC, Shimadzu Corporation, Kyoto, Japan).
Time-domain lifetimes were measured on a ChronosBH lifetime fluorimeter (ISS, Inc., Champaign, Ill., United States of America) using Time-Correlated Single Photon Counting (TCSPC) methods. The fluorimeter contained Becker-Hickl SPC-130 detection electronics and an HPM-100-40 Hybrid PMT detector. Tunable picosecond pulsed excitation was provided by a Fianium SC400-2 supercontiuum laser source with integrated pulse picker and AOTF. Emission wavelengths were selected with bandpass filters (Semrock and Chroma). The Instrument Response Function (IRF) was measured to be approximately 120 ps FWHM in a 1% scattering solution of Ludox LS colloidal silica. Lifetimes were fit via a forward convolution method in the Vinci control and analysis software.
Fluorescence spectra of suspensions of Hf-MOF (0.04 mM of L ligand) in water, DMF, and THF were taken with an excitation wavelength of 368.8 nm. […] Fluorescence lifetimes of Hf-MOF, Zr-MOF, and H2L suspensions in water were also examined.

CT26 cells = assay: In vitro PDT cytotoxicity; assay type: cell-based, murine; conditions: with irradiation, LED 90 J/cm^2 (0.1 W/cm^2, 15 min), 640 or 650 nm
Experimental: as §1

| Molecule | k (singlet oxygen generation rate) ([1]; 5 μM in HBSS, 640 nm LED 100 mW/cm^2, listed as DBP) [s⁻¹] | k (fitting parameter for 1O2 generation curve) [1] [min⁻¹] | IC50 (HT29 cells) [µM] | tumor growth [2] | tumor growth [3] | μ1 ([4]; aq) [ns] | μ2 ([4]; aq) [ns] | τ ([4]; aq) [ns] | μ1 ([4]; in DMF) [ns] | IC50 (CT26 cells) [µM] | μ1 ([4]; in HBSS) [ns] | μ2 ([4]; in HBSS) [ns] | τ ([4]; in HBSS) [ns] |
| --- | --- | --- | --- | --- | --- | --- | --- | --- | --- | --- | --- | --- | --- |
| O=C(O)c1ccc(-c2c3nc(cc4ccc([nH]4)c(-c4ccc(C(=O)O)cc4)c4nc(cc5ccc2[nH]5)C=C4)C=C3)cc1 [H2DBP, 5,15-di(p-benzoato)porphyrin] | 0.0015 | 0.06 | 17 ± 4 | failed to suppress the tumor growth | failed to suppress the tumor growth | 12.4 | 7.86 | 10.9 | 11.3 | 20 ± 3.1 | – | – | – |
| 5, 15-di(p-benzoato)chlorin [H2DBC] | – | 0.25 | 7.5 ± 2.3 | failed to suppress the tumor growth | failed to suppress the tumor growth | – | – | – | 8.27 | 8.5 ± 0.1 | 5.80 | 8.77 | 8.15 |
